# Results from US11679110B2, “Methods of treating disorders using CSF1R inhibitors” (Deciphera Pharmaceuticals, LLC, priority 2018, dated 2023).
# “Also recorded” adds a separate entry of the source. Read-outs that look alike come from different tables or passages of the source.
# Assays:
# [1] = rat, 4-week, cited from earlier work
# [2] = human; recommended dose 800 mg daily; cited from earlier work
# [3] = rat, six-month, cited from earlier work
# TGCT or DTGCT = details: cited from earlier work
# [4] = human, in vivo, 800 mg
# clinical = details: human, in vivo, 800 mg
# M-NFS-60 cells = experiment: cells; format: cell-based; details: Mus musculus
smiles,measurement,setting,value
FC(F)(F)c1ccc(CNc2ccc(Cc3c[nH]c4ncc(Cl)cc34)cn2)cn1 [pexidartinib],NOAEL,"[1]; 20, 60, 200 mg/kg/day oral gavage",could not be established
same,liver enzymes,[1]; all dose groups,increased liver enzymes
same,liver histology finding,[1]; all dose groups,dose-related hepatocellular centrilobular hypertrophy
same,AUC0-12 clinical exposure cited in the label,[2],77.465 µg·h/mL
same,deaths of main study animals due to treatment-related immunocompromise,[3]; 60 mg/kg daily,3
same,liver findings in female rats,"[3]; 60 mg/kg, female",biliary cysts and increased gamma-glutamyl transferase (GGT) levels
same,liver findings,[3]; ≥20 mg/kg,hemosiderin deposition and necrotizing inflammation
same,ORR,"TGCT or DTGCT; ENLIVEN phase 3 randomized trial, maintenance dose 400 mg twice daily",39%
same,overall response rate (ORR),"TGCT or DTGCT; TGCT or DTGCT patients, 1000 mg daily, phase 2 clinical study",52%
same,maximum tolerated dose,"TGCT or DTGCT; TGCT patients, clinical use",400 mg twice daily
same,liver injury / hepatotoxicity,TGCT or DTGCT; patients,mixed or cholestatic hepatotoxicity; also recorded: black box warning of hepatotoxicity
same,maximum tolerated dose and chosen phase 2 dose,TGCT or DTGCT; patients,1000 mg per day
same,AUC0-24 clinical exposure (estimated from label AUC0-12),[4],154.93 µg·h/mL
same,AUC(0-t),clinical,155 µg·h/mL
same,IC50,"M-NFS-60 cells; read-out: average IC50, inhibition of M-NFS-60 cell proliferation, 10 ng/mL CSF1",15.7 nM
same,IC50,"M-NFS-60 cells; read-out: average IC50, inhibition of M-NFS-60 cell proliferation, 1,000 ng/mL CSF1",59.6 nM
